# Test results published in paper PMC4773869, “Influence of plasma-activated compounds on melanogenesis and tyrosinase activity” (Scientific Reports, 2016).
# Like-named read-outs stand apart in the source and are kept apart here.
# Key:
# mushroom tyrosinase [1] = target: T1, mushroom tyrosinase (Agaricus bisporus, UniProt C7FF04); experiment: Mushroom tyrosinase inhibition assay (L-DOPA, dopachrome at 492 nm); type: biochemical; design: purchased Sigma Chemical Co. USA; conditions: mean ± SD, read-out: Tyrosinase inhibitory activity IC50 (converted)
# Procedure: To determine the action of ED and PAED, we checked the mushroom tyrosinase inhibitory activity in a cell-free environment. […] Moreover, after plasma treatment for different time intervals, we observed that inhibition activity of 4a, 4b, 4d and 6a was improved more as compared to without treatment. […] However, we observed the highest relative improvement in IC50 value of compound 4b among all ED compounds at 10 min plasma treatment. […] Therefore, we used the 4b and 6a compounds for further investigations, based on the decrease in IC50 value to a global minimum of the experiment after plasma treatment.
# The mushroom tyrosinase was used for in vitro bioassays as described previously with some modifications. Briefly, 140 μl of phosphate buffer (20 mM, pH 6.8), 20 μl of mushroom tyrosinase (30 U/ml), and 20 μl of the inhibitor solution were placed in the wells of a 96-well plate. After pre-incubation for 10 min at room temperature, 20 μl of L-DOPA (3,4-dihydroxyphenylalanine) (0.85 mM) was added and the plate was further incubated at 25 °C for 20 min. Subsequently the absorbance of dopachrome was measured at 492 nm using a micro plate reader (OPTI Max, Tunable). Kojic acid was used as a reference inhibitor. The extent of inhibition by the test compounds was expressed as the […] necessary to achieve 50% inhibition (IC50). Each concentration was analyzed in three independent experiments run in triplicate. The IC50 values were determined by the data analysis and graphing software, Origin.
# Target sequence in this assay (C7FF04 1-392): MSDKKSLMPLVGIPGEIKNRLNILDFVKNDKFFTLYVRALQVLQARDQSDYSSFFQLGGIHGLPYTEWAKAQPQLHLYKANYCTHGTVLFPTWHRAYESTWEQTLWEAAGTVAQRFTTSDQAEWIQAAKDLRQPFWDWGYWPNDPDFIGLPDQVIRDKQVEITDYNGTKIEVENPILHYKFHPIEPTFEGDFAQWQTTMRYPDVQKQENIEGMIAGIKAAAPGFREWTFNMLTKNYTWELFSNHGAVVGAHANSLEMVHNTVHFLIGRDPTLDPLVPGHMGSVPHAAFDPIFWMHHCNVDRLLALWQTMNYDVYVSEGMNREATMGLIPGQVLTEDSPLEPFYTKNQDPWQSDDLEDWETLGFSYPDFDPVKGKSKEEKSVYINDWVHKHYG
# mushroom tyrosinase [2] = target: T1, mushroom tyrosinase; experiment: Circular dichroism analysis of the secondary structure of mushroom tyrosinase; conditions: 0.1 mM; for Turn % of tyrosinase: enzyme alone 7; for α-helix % of tyrosinase: enzyme alone 16; for β-sheet % of tyrosinase: enzyme alone 33; for Random coil % of tyrosinase: enzyme alone 44
# Procedure: The structural changes in tyrosinase after incubation with ED and PAED were plotted in Fig. 5. […] We observed that the control tyrosinase enzyme has 16% α-helix, 33% β-sheets, 7% turn, and 44% random coil. After the interaction with 4a, the amount of α-helix changed to 15% and β-sheets changed to 35%. On the other hand, after the plasma treatment of 4a the amount of α-helix changed to 17% and β-sheets changed to 31%. While, after interacting with 4b, the amount of α-helix is 16.0%, β-sheets 29%, turn 10%, and random coil is 45.0%. However, plasma-activated 4b interacts differently with tyrosinase enzyme, showing 16% α-helix, 33% β-sheets, 6% turn, and 45% random coil. When 6a ED interacted with tyrosinase enzyme, we observed 20% α-helix, 25% β-sheets, 11.0% turn, and 44% random coil. However, 6a PAED interacts with tyrosinase enzyme, the α-helix changed to 19%, β-sheets 28%, turn 9%, and random coil 44%. […] To obtain further detail on the interaction of the ED with tyrosinase enzyme, we studied the molecular docking. For the CD spectroscopic studies[65][66][67] a J-815 spectrophotometer (Jasco, Japan) was used, equipped with a Peltier system that controlled the temperature. (1S)-(+)-10-camphorsulfonic acid (Aldrich, Milwaukee, WI) with a molar extinction coefficient of 34.5 M/cm at 285 nm and a 2.36 M/cm molar ellipticity (θ) at 295 nm was used for the CD calibrations. The samples were pre-equilibrated at the desired temperature for 15 min, and the scan speed was fixed for adaptative sampling (error F 0.01) with a response time of 1 sec and a 1 nm bandwidth. The secondary structure of the mushroom tyrosinase was monitored by using a 1.0 cm path length cuvette. The mushroom tyrosinase (0.2 mg/ml) was prepared in phosphate buffer (20 mM) at pH 6.8 for CD analysis. We used the 0.1 mM concentration of all derivatives in 1 ml buffer solution, with or without 10 min plasma treatment. All spectra were collected in triplicate from 200 to 250 nm and the background was corrected against the buffer (blank). The percentages of secondary structures of proteins were calculated using inbuilt Jasco software.
# Target sequence in this assay (C7FF04 2-392): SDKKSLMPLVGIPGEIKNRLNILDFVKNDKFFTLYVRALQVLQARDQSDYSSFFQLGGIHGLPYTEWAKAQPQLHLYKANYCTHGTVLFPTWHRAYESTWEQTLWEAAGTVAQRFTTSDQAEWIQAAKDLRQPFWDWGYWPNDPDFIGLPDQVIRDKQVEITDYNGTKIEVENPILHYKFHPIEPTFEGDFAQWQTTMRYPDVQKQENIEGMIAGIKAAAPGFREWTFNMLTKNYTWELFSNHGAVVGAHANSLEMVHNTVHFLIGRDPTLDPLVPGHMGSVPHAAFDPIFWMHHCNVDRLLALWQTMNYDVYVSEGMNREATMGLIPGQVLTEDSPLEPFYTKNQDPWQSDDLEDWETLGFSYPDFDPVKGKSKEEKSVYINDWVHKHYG
# B16F10 cells = experiment: Intracellular melanin content measurement; type: cell-based, murine; conditions: for melanin, % of control (normalized to 100%): as-synthesized ED, no α-MSH, concentration not given
# Procedure: Melanoma (1.5 × 10^5) cells were seeded in cell culture plates and allowed to attach for 24 hr. Then each eugenol derivative was added and tested separately for melanin activation after 24 hr of incubation. After incubation, cells were detached using trypsin/EDTA and centrifuged at 1000 rpm for 5 min to collect the cell pellets. The cell pellets were solubilized in 1N NaOH at 60 °C for 1 hr. The melanin content was measured spectrophotometrically at 405 nm wavelength using a microplate reader (BioTek, synergy HT)[56]. […] Plasma-treated and non-plasma-treated ED (4b and 6a) were added to the cells, pre-incubated with or without α-MSH (100 nM) for a further 24 hr and melanin content was assayed as described above. Kojic acid can inhibit and α-MSH can stimulate the melanin in the cells, therefore we used them as negative and positive controls.
# [3] = Con: as-synthesized, before plasma treatment, cell-free
# [4] = compound after 3 min N2 APPJ plasma treatment
# [5] = compound after 5 min N2 APPJ plasma treatment
# [6] = compound after 10 min N2 APPJ plasma treatment
# [7] = tyrosinase + as-synthesized compound (0 min plasma)
# [8] = tyrosinase + 10 min plasma-treated compound
IC50 (mushroom tyrosinase [1]; [3]) [µM],IC50 (mushroom tyrosinase [1]; [4]) [µM],IC50 (mushroom tyrosinase [1]; [5]) [µM],IC50 (mushroom tyrosinase [1]; [6]) [µM],Turn % of tyrosinase (mushroom tyrosinase [2]; [7]) [%],α-helix % of tyrosinase (mushroom tyrosinase [2]; [7]) [%],β-sheet % of tyrosinase (mushroom tyrosinase [2]; [7]) [%],Random coil % of tyrosinase (mushroom tyrosinase [2]; [7]) [%],melting point [°C],Turn % of tyrosinase (mushroom tyrosinase [2]; [8]) [%],α-helix % of tyrosinase (mushroom tyrosinase [2]; [8]) [%],β-sheet % of tyrosinase (mushroom tyrosinase [2]; [8]) [%],Random coil % of tyrosinase (mushroom tyrosinase [2]; [8]) [%],Compound,"melanin, % of control (normalized to 100%) (B16F10 cells) [%]","melanin stimulation (in words) (B16F10 cells; with or without plasma treatment, presence or absence of α-MSH (Fig. 10))","inhibition at 250 µg/mL (B16F10 cells; Mus musculus, B16-F10, 250 μg/ml, absence of α-MSH, negative control, read-out: inhibition of melanin synthesis compared to the control) [%]","melanin synthesis, % of control (100%) (B16F10 cells; 10 min plasma-treated, presence of α-MSH) [%]"
41.9,53,67,80.9,4,16,35,45,99 to 101,,,,,"C=CCc1ccc(OC(=O)COC(=O)c2ccc(O)cc2O)c(OC)c1 [4c, 2-[2-methoxy-4-(prop-2-en-1-yl)phenoxy]-2-oxoethyl 2,4-dihydroxybenzoate]",117,,,
18.1,85.3,103,142,3,15,37,45,86 to 88,,,,,"C=CCc1ccc(OC(=O)COC(=O)/C=C/c2ccc(Cl)cc2)c(OC)c1 [6b, 2-[2-methoxy-4-(prop-2-en-1-yl)phenoxy]-2-oxoethyl(2E)-3-(4-chloroyphenyl)prop-2-enoate]",119,Melanin stimulation was observed,,
,,,,,,,,,9,19,28,44,C=CC(=O)c1ccc(OC(=O)COC(=O)/C=C/c2ccc(O)cc2)c(OC)c1 [Plasma treated 6a],,,,
,,,,,,,,,,,,,"O=c1cc(CO)occ1O [Kojic acid, reference compound]",,,~12,
53,215,201,156,6,15,33,46,107 to 109,,,,,"C=CCc1ccc(OC(=O)COC(=O)c2cc(O)cc(O)c2)c(OC)c1 [4e, 2-[2-methoxy-4-(prop-2-en-1-yl)phenoxy]-2-oxoethyl 3,5-dihydroxybenzoate]",115,,,
73,70.1,58.4,49.7,5,15,35,45,70 to 72,,17,31,,"C=CCc1ccc(OC(=O)COC(=O)c2cccc(O)c2)c(OC)c1 [4a, 2-[2-methoxy-4-(prop-2-en-1-yl)phenoxy]-2-oxoethyl 3-hydroxybenzoate]",116,,,
162,131,100,80.9,7,15,33,45,148 to 151,,,,,"C=CCc1ccc(OC(=O)COC(=O)c2ccc(O)c(O)c2)c(OC)c1 [4d, 2-[2-methoxy-4-(prop-2-en-1-yl)phenoxy]-2-oxoethyl 3,4-dihydroxybenzoate]",110,,,
,,,,,,,,,6,16,33,45,O=C(COC(=O)c1ccc(O)cc1)Oc1ccc(C(=O)/C=C/O)cc1OCO [Plasma treated 4b],,,,188
